From patent publication US12559573B2, “Biotin-specific monoclonal antibody and use thereof” (Roche Diagnostics Operations, Inc., priority 2016, dated 2026)

Assay: Biotin interference in Elecsys TSH sandwich assay
Conditions: control reagent without anti-biotin antibody
Protocol: The control sample for the Elecsys TSH assay, PreciControl Universal 2 is spiked with rising concentrations of biotin (e.g. 0, 100 and 200 ng/mL final concentration of biotin). Reagent 2 of the Elecsys TSH sales kit containing the anti TSH detection-antibody is used in a unmodified version (control), and a modified version, additionally containing 300 μg/mL of an monoclonal anti Biotin antibody according to the invention. The sandwich assay is performed according to the routine assay protocol for the Elecsys TSH assay: Shortly, 50 μL of Sample (PreciControl Universal 2 with or without biotin) are incubated with 60 μL of Reagent 1 of the Elecsys TSH kit containing the biotinylated anti-TSH antibody and 50 μL of Reagent 2 containing the ruthenylated anti-TSH antibody with or without further addition of 300 μg/mL of the monoclonal anti Biotin antibody. After incubation at 37° C. for 9 min, 40 μL suspension of streptavidin coated magnetic beads of the Elecsys TSH kit are added, the reaction is incubated for another 9 min and finally the reaction mixture is aspirated into the measuring cell where the microparticles are magnetically captured onto the surface of the electrode. Unbound substances are then removed with ProCell. Application of a voltage to the electrode then induces electrochemiluminescense-based emission of light which is measured by a photomultiplier.

SMILES: O=C(O)CCCC[C@@H]1SC[C@@H]2NC(=O)N[C@@H]21 [biotin, 5-[(3aS,4S,6aR)-2-oxo-1,3,3a,4,6,6a-hexahydrothieno[3,4-d]imidazol-4-yl]pentanoic acid]
- Signal relative to reference signal (sample without biotin) (100 ng/mL biotin in sample): 53%
- Signal relative to reference signal (sample without biotin) (200 ng/mL biotin in sample): 16%
